Data on three molecules can be found in patent publication US6589773B1, “Methods and compositions for a modified yeast strain with increased permeability and uses thereof” (priority 2000, dated 2003).

Assay [1] deals with parental strains SKY48 and SKY191. Put plainly: Yeast strain sensitivity to selected compounds (top-agar death zones), parental strains. In kind it is cell-based, S. cerevisiae. The note with it: all concentrations tested (100 μg to 1 μg). As to the method: (§1) Decreasing concentrations of cycloheximide, 4-nitroquinolin-oxide, sulfmethuron methyl, and Zeocin were plated on parental yeast strains SKY48 and SKY191 and the modified yeast strains SKY54 and SKY197. From top to bottom of each plate, and from left to right of each row: 5 μg, 2.5 μg, 1 μg, 0.5 μg, 0.2 μg, and 50 ng of CYH; 2.5 μg, 1.25 μg, 0.5 μg, 0.25 μg, 0.1 μg, and 25 ng of NQO; 100 μg, 50 μg, 20 μg, 10 μg, 4 μg, and 1 μg of SMM; and 100 μg, 50 μg, 20 μg, 10 μg, 4 μg, and 1 μg of Zeo.
SKY48 and SKY191 parental strains The parent strains SKY48 and SKY 191 (MATαtrp1 URA3 his3 lexAop-LEU2 cIop-LYS2), with 6 or 2 lexA operators upstream of LEU2, respectively, have been described (Serebriiskii et al., 1999, J. Biol. Chem. 274:17080-17087, which is incorporated herein by reference in its entirety).
Yeast strain sensitivity to selected compounds SKY54 and SKY197 were tested for sensitivity to various concentrations of compounds, including cycloheximide (CYH), 4-nitroquinolin-oxide (NQO), sulfmethuron methyl (SMM) and Zeocin (Zeo), relative to the sensitivity of the parental strains, SKY48 and SKY191 to these compounds. […] Sensitivity to various concentrations of compounds was scored by visualization of growth on this media, and the size of “death zones” of sensitive colonies. […]

In assay [2] the test system is modified strains SKY54 and SKY197. Kind of assay: Yeast strain sensitivity to selected compounds (top-agar death zones / MIC), modified strains. To be noted: for change of sensitivity on induction of HXT9 and HXT11 expression: Gal/Raff containing media; for sensitivity relative to parental strains SKY48 and SKY191, based on the size of the death zones: YPD media, same concentration. In kind it is cell-based, S. cerevisiae. As to the method: As used herein, “hyperpermeable” yeast cells or a “hyperpermeable” yeast strain, are yeast cells and strains which have an increased sensitivity to one or more test compounds, relative to the sensitivity of the yeast cells and strains without the above-described insertion-disruption of genes that alter cellular permeability. Sensitivity to such compounds and small molecules is determined by measuring the MIC (minimal inhibitory concentration) of such compounds to visible growth of yeast cells, disregarding a haze of barely visible growth of such yeast cells.
as §1
Yeast strain sensitivity to selected compounds SKY54 and SKY197 were tested for sensitivity to various concentrations of compounds, including cycloheximide (CYH), 4-nitroquinolin-oxide (NQO), sulfmethuron methyl (SMM) and Zeocin (Zeo), relative to the sensitivity of the parental strains, SKY48 and SKY191 to these compounds. Yeast cells were propagated on YPD or YPG/R plates in top-agar layer containing 1% of low melt SeaPlaque agarose and YPD or YPG/R growth media with glucose or galactose as the carbon source. CYH (5 mg/ml), NQO (2.5 mg/ml), SMM (100 mg/ml) and Zeo (100 mg/ml) stock solutions were diluted 2, 5, 10, 25, and 100-fold, and applied on top-agar growing yeast by means of prone device. Sensitivity to various concentrations of compounds was scored by visualization of growth on this media, and the size of “death zones” of sensitive colonies. Thus, the plates shown in FIG. 15 show the sensitivity of the parental and modified yeast strains to, from top to bottom of each plate, and from left to right of each row, 5 μg, 2.5 μg, 1 μg, 0.5 μg, 0.2 μg, and 50 ng of CYH; 2.5 μg, 1.25 μg, 0.5 μg, 0.25 μg, 0.1 μg, and 25 ng of NQO; 100 μg, 50 μg, 20 μg, 10 μg, 4 μg, and 1 μg of SMM; and 100 μg, 50 μg, 20 μg, 10 μg, 4 μg, and 1 μg of Zeo. […] When SKY54 and SKY197 were incubated on Gal/Raff containing media, thereby inducing expression of HXT9 and HXT11 genes, the sensitivity to CYH and 4-NQO increased. The estimated increase of death zone diameters for 4-NQO for SKY54 and SKY 197 on Gal/Raff media in comparison with the parental strains grown on the same media was ˜32-40%. After 48 hours of incubation on Gal/Raff media, sensitivity to CYH was estimated to be 0.01 μg/ml MIC (minimal inhibitory concentration). The MIC is defined as the lowest concentration (micrograms per milliliter of broth) that inhibited visible growth, disregarding a haze of barely visible growth. Sensitivity to CYH of a yeast strain harboring PDR1 and PDR3 deletions, and the HXT11 gene overexpressed from a multicopy plasmid, was previously reported as having an MIC of 0.03 μg/ml CYH (Nourani et al., 1997, Mol. Cell. Biol. 17:5453-5460). […] A comparative analysis of parental strain SKY48 and obtained SKY54 to 73,400 compounds from the SMT chemical library is shown in Table 2. SKY48 is sensitive to 1,959 compounds while SKY54 is sensitive to 3,011 compounds. Thus, SKY54 was sensitive to 154% as many compounds as the parental strain, SKY48.

The subject of assay [3] is yeast strain harboring PDR1 and PDR3 deletions, and the HXT11 gene overexpressed from a multicopy plasmid. The note with it: previously reported, Nourani et al., 1997; cited from earlier work.

The structures appear in SMILES notation. In brackets after ≈: the same amount, converted by molar mass.

Turning to `COC(=O)c1ccccc1S(=O)(=O)NC(=O)Nc1nc(C)cc(C)n1` [SMM, sulfmethuron methyl], the “sensitivity (growth, size of death zones)” value in assay [1] is “no sensitivity”; in assay [2] (SKY54 and SKY197, all concentrations tested (100 μg to 1 μg)) it was “no sensitivity”.

In the case of `C[C@@H]1C[C@@H]([C@H](O)CC2CC(=O)NC(=O)C2)C(=O)[C@@H](C)C1` [CYH, cycloheximide], in assay [3], the MIC is 0.03 µg/mL (≈ 0.107 µM). Further, in assay [2], the “change of sensitivity on induction of HXT9 and HXT11 expression” value was “increased”; the “sensitivity relative to parental strains SKY48 and SKY191, based on the size of the death zones” value is given as “significantly more sensitive”. Moreover, the MIC in assay [2] (Saccharomyces cerevisiae, SKY54ANDSKY197, 48 h, read-out: MIC (minimal inhibitory concentration)) came to 0.01 µg/mL (≈ 0.0355 µM).

Turning to `O=[N+]([O-])c1cc[n+]([O-])c2ccccc12` [4-NQO, 4-nitroquinolin-oxide], in assay [2], the “change of sensitivity on induction of HXT9 and HXT11 expression” value is “increased”; the “sensitivity relative to parental strains SKY48 and SKY191, based on the size of the death zones” value was “significantly more sensitive”. Besides, in assay [2] (Gal/Raff media, parental strains grown on the same media), the “estimated increase of death zone diameters in comparison with the parental strains” value is reported as 32-40%.
